The supplement of paper PMC10307832

Assays:
Assay in all cases: relative viability (nuclei count vs DMSO), 5 days (fraction); higher = more cells survive
BEN = tested on: BEN
In short: (§1)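 Lung cancer cell lines were seeded in 1536-well plates and dosed by pin tool the next day, with either a single drug or a fixed anchor-drug dose combined with five library-drug doses (not always all listed) spaced in √10 steps. Five days later, one step fixed the cells and stained their nuclei (final 0.05% Triton X-100, 1% formaldehyde, 1 ug/ml Hoechst), and nuclei were counted on 4× images. Relative viability is the nuclei count in treated wells divided by the count in vehicle wells, and each value is the median of duplicate plates.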

CAL-12T = tested on: CAL-12T
In short: as §1

EKVX = tested on: EKVX
In short: as §1

HCC-15 = tested on: HCC-15
In short: as §1

HCC-366 = tested on: HCC-366
In short: as §1

HCC-44 = tested on: HCC-44
In short: as §1

LOU-NH91 = tested on: LOU-NH91
In short: as §1

NCI-H1355 = tested on: NCI-H1355
In short: as §1

NCI-H1395 = tested on: NCI-H1395
In short: as §1

NCI-H1437 = tested on: NCI-H1437
In short: as §1

NCI-H1650 = tested on: NCI-H1650
In short: as §1

NCI-H1651 = tested on: NCI-H1651
In short: as §1

NCI-H1734 = tested on: NCI-H1734
In short: as §1

NCI-H1755 = tested on: NCI-H1755
In short: as §1

NCI-H1975 = tested on: NCI-H1975
In short: as §1

NCI-H2023 = tested on: NCI-H2023
In short: as §1

NCI-H2085 = tested on: NCI-H2085
In short: as §1

NCI-H441 = tested on: NCI-H441
In short: as §1

NCI-H460 = tested on: NCI-H460
In short: as §1

NCI-H838 = tested on: NCI-H838
In short: as §1

C[C@@H]1CN(CC(=O)Nc2ccc3c(c2)Cc2cccc(-c4cc(=O)cc(N5CCOCC5)o4)c2S3)C[C@H](C)O1 + CC1(C)CCC(c2ccc(Cl)cc2)=C(CN2CCN(c3ccc(C(=O)NS(=O)(=O)c4ccc(N[C@H](CCN5CCOCC5)CSc5ccccc5)c(S(=O)(=O)C(F)(F)F)c4)cc3)CC2)C1 [Navitoclax] (partner 0.5 µM) showed a relative viability (BEN; first compound 0.04 µM) of 0.0641, a relative viability (BEN; first compound 0.1265 µM) of 0.0514 and a relative viability (BEN; first compound 0.4 µM) of 0.0961. For the same compound, the relative viability (BEN; first compound 4 µM) was 0.0488, the relative viability (CAL-12T; first compound 0.04 µM) was 1.42 and the relative viability (CAL-12T; first compound 0.1265 µM) was 1.11. For the same compound, the relative viability (CAL-12T; first compound 0.4 µM) was 1.07, the relative viability (CAL-12T; first compound 4 µM) was 0.652 and the relative viability (EKVX; first compound 0.04 µM) was 0.899. It also gave a relative viability (EKVX; first compound 0.1265 µM) of 0.894, a relative viability (EKVX; first compound 0.4 µM) of 0.862 and a relative viability (EKVX; first compound 4 µM) of 0.812. The relative viability (HCC-15; first compound 0.04 µM) was 0.7, the relative viability (HCC-15; first compound 0.1265 µM) was 0.639 and the relative viability (HCC-15; first compound 0.4 µM) was 0.682. The relative viability (HCC-15; first compound 4 µM) was 0.556, the relative viability (HCC-366; first compound 0.04 µM) was 1.04 and the relative viability (HCC-366; first compound 0.1265 µM) was 1.08. It also gave a relative viability (HCC-366; first compound 0.4 µM) of 1.15, a relative viability (HCC-366; first compound 4 µM) of 0.944 and a relative viability (HCC-44; first compound 0.04 µM) of 0.987. It also gave a relative viability (HCC-44; first compound 0.1265 µM) of 0.894, a relative viability (HCC-44; first compound 0.4 µM) of 0.835 and a relative viability (HCC-44; first compound 4 µM) of 0.943. The relative viability (LOU-NH91; first compound 0.04 µM) was 0.701, the relative viability (LOU-NH91; first compound 0.1265 µM) was 0.617 and the relative viability (LOU-NH91; first compound 0.4 µM) was 0.702. It also gave a relative viability (LOU-NH91; first compound 4 µM) of 0.66, a relative viability (NCI-H1355; first compound 0.04 µM) of 0.978 and a relative viability (NCI-H1355; first compound 0.1265 µM) of 0.894. For the same compound, the relative viability (NCI-H1355; first compound 0.4 µM) was 0.856, the relative viability (NCI-H1355; first compound 4 µM) was 0.899 and the relative viability (NCI-H1395; first compound 0.04 µM) was 1.16. It also gave a relative viability (NCI-H1395; first compound 0.1265 µM) of 1.26, a relative viability (NCI-H1395; first compound 0.4 µM) of 1.35 and a relative viability (NCI-H1395; first compound 4 µM) of 1.16. The relative viability (NCI-H1437; first compound 0.04 µM) was 1.14, the relative viability (NCI-H1437; first compound 0.1265 µM) was 1.1 and the relative viability (NCI-H1437; first compound 0.4 µM) was 1.13. For the same compound, the relative viability (NCI-H1437; first compound 4 µM) was 0.882, the relative viability (NCI-H1650; first compound 0.04 µM) was 1.25 and the relative viability (NCI-H1650; first compound 0.1265 µM) was 1.09. For the same compound, the relative viability (NCI-H1650; first compound 0.4 µM) was 1.38, the relative viability (NCI-H1650; first compound 4 µM) was 0.969 and the relative viability (NCI-H1651; first compound 0.04 µM) was 1.05. It also gave a relative viability (NCI-H1651; first compound 0.1265 µM) of 0.987, a relative viability (NCI-H1651; first compound 0.4 µM) of 0.836 and a relative viability (NCI-H1651; first compound 4 µM) of 1.03. The relative viability (NCI-H1734; first compound 0.04 µM) was 0.783, the relative viability (NCI-H1734; first compound 0.1265 µM) was 0.886 and the relative viability (NCI-H1734; first compound 0.4 µM) was 0.808. The relative viability (NCI-H1734; first compound 4 µM) was 0.923, the relative viability (NCI-H1755; first compound 0.04 µM) was 1.02 and the relative viability (NCI-H1755; first compound 0.1265 µM) was 0.945. It also gave a relative viability (NCI-H1755; first compound 0.4 µM) of 0.924, a relative viability (NCI-H1755; first compound 4 µM) of 0.92 and a relative viability (NCI-H1975; first compound 0.04 µM) of 1.33. For the same compound, the relative viability (NCI-H1975; first compound 0.1265 µM) was 1.06, the relative viability (NCI-H1975; first compound 0.4 µM) was 1.02 and the relative viability (NCI-H1975; first compound 4 µM) was 0.846. It also gave a relative viability (NCI-H2023; first compound 0.04 µM) of 0.993, a relative viability (NCI-H2023; first compound 0.1265 µM) of 0.921 and a relative viability (NCI-H2023; first compound 0.4 µM) of 0.923. It also gave a relative viability (NCI-H2023; first compound 4 µM) of 0.796, a relative viability (NCI-H2085; first compound 0.04 µM) of 1.23 and a relative viability (NCI-H2085; first compound 0.1265 µM) of 1.18. For the same compound, the relative viability (NCI-H2085; first compound 0.4 µM) was 1.02, the relative viability (NCI-H2085; first compound 4 µM) was 0.827 and the relative viability (NCI-H441; first compound 0.04 µM) was 0.427. The relative viability (NCI-H441; first compound 0.4 µM) was 0.576, the relative viability (NCI-H441; first compound 4 µM) was 0.318 and the relative viability (NCI-H460; first compound 0.04 µM) was 1.07. The relative viability (NCI-H460; first compound 0.1265 µM) was 1.17, the relative viability (NCI-H460; first compound 0.4 µM) was 1.22 and the relative viability (NCI-H460; first compound 4 µM) was 0.955. For the same compound, the relative viability (NCI-H838; first compound 0.04 µM) was 1.17, the relative viability (NCI-H838; first compound 0.1265 µM) was 1.16 and the relative viability (NCI-H838; first compound 0.4 µM) was 1.07. It also gave a relative viability (NCI-H838; first compound 4 µM) of 0.896.
